Assay results taken from paper PMC3511524, “Ant Trail Pheromone Biosynthesis Is Triggered by a Neuropeptide Hormone” (PLoS ONE, 2012).
Like-named read-outs stand apart in the source and are kept apart here. Ends that are not written are not given here.

Molecular target: T1, SolinPBAN-R (Solenopsis invicta, UniProt L0APC6)
T1 sequence (L0APC6 1-605): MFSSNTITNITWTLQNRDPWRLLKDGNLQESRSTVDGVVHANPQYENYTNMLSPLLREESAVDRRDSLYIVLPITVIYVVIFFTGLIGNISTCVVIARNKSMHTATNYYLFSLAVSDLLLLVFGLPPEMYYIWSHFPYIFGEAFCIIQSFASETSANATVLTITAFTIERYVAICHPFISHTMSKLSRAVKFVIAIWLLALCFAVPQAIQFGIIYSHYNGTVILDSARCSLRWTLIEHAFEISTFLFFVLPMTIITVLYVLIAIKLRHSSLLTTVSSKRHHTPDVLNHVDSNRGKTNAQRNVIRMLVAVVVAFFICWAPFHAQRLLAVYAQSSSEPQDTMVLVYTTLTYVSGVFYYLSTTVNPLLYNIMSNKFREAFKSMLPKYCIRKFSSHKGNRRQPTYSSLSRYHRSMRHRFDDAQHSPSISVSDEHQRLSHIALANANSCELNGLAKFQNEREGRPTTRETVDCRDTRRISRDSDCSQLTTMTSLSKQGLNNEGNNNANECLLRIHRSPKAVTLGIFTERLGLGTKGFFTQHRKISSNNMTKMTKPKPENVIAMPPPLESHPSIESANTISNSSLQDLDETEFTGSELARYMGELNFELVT
Experiment: SolinPBAN-R/peptide binding assay (calcium-based Fluo-4AM fluorescence in Sf9 cells expressing SolinPBAN-R)
Type: cell-based
Conditions: for EC50: SolinPBAN-R expressed in Sf9 cells, Fluo-4AM fluorescence relative to 1 µM ionomycin maximum, read-out: EC50 (half-maximal effective concentration), binding activity to SolinPBAN-R
Experimental: Poly(A) RNA was isolated from whole bodies and heads of S. invicta workers and mature female alates for synthesis cDNA as described previously. Synthesized cDNA was amplified with a degenerate primer set: 5′-[…]-3′ ([…]) and 5′-[…]-3′ ([…]) mostly conserved in TM2 and TM7 domains from insect PBAN-Rs [25]–[27]. PCR was performed for 35 cycles at 95°C for 30 s, 50°C for 30 s, and 72°C for 1 min. The PCR product was directly sequenced by Interdisciplinary Center for Biotechnology Research (ICBR, University of Florida), and then the sequence result was used to design further gene-specific primers to find 5′- and 3′- ends of the fire ant PBAN-R cDNA. 5′-RACE (GeneRacer kit, Invitrogen) was performed using primers 5′-[…]-3′ (from nucleotide 1106) and 5′-[…]-3′ (from nucleotide 588) by the 5′-RACE kit (Invitrogen). 3′-RACE was performed using primers 5′-[…] NTTYCA-3′ (from nucleotide 1199), 5′-[…] […]-3′ (from nucleotide 1336) and 5′-[…]-3′ (from nucleotide 1392). Then PCR products were inserted into a subcloning vector (TOPO-TA, Invitrogen) and confirmed the nucleotides by DNA sequence. Sequences of the receptor DNA and corresponding amino acids were analyzed by Genetyx software ver. 10 (Genetyx Corporation) and PredictProtein software. The ORF of PBAN-R cDNA was amplified using the sense primer of 5′- […] […]-3′ (from nucleotide 255 including the NotI site) and 5′-[…] […]-3′ (from nucleotide 2122 including the XbaI site). The PCR product was ligated into a pIBV5His vector (Invitrogen) for expression in Sf9 cells as described previously.
All peptides used in this study were synthesized or purchased from Sigma Genosys or Peninsula Laboratories. The preparation of cells, peptides, and Fluo-4AM with hymenopteran saline followed a previously described method. Cell fluorescence intensity in a 96-well cell-culture was measured using a plate reader (BMG's NovoStar) equipped with filters (excitation: 485 nm and emission: 520 nm), and one pipetter and two injectors. Fluorescence measurements from each well were taken every 10s. After 30s PBAN or FXPRL peptide (10 µL) was added by pipetter and fluorescent changes were measured for up to 3 min. Then, 1 µM ionomycin (5 µL) was added into the cells to obtain a maximum fluorescence reading. The effect of ligand-exposure was expressed relative to the maximum value obtained with ionomycin. Data were analyzed using Microsoft EXCEL as described previously and measured EC50 values of ligands were determined using GraphPad Prism 4.03 software.
The PBAN/pyrokinin family of peptides and their receptors are currently classified as PK1 or PK2. Diapause Hormone (DH) peptides and their receptors are classified as type PK1. PBAN and other PBAN family peptides, and their receptors are classified as type PK2 [12]. To verify our SolinPBAN-R assignment we determined binding affinities for a number of PK1 ( = DH type) and PK2 ( = PBAN type) neuropeptides to SolinPBAN-R (Table 1). We expressed SolinPBAN-R in Spodoptera frugiperda 9 (Sf9) insect cells, which enabled binding specificity studies by measurement of calcium-based fluorescence intensity (Fig. 3A and Table 1). […] The SolinPBAN/pyrokinin gene is expressed in all life stages in fire ant, from egg to adult; however, the disposition of the four SolinPBAN/pyrokinin peptides in each life stage, as well as the possibility of additional receptors is unknown and currently under investigation.

Substance: GSGEDLSYGDAYEVDEDDHPLFVPRL-NH2 [SolinPBAN]
- EC50 value times less than HelzePBAN (18 nM vs. 56 nM, Sf9 cells expressing SolinPBAN-R): 3 times
- EC50 (N≥4): 18 nM

Substance: LSDDMPATPADQEMYRQDPEQIDSRTKYFSPRL-NH2 [HelzePBAN]
- EC50 (N≥4): 56 nM

Substance: NDVKDGAASGAHSDRLGLWFGPRL-NH2 [HelzePGN24 (DH)]
- EC50: > 1000 nM

Substance: SVPFKPRL-NH2 [DromePK2]
- EC50 (N≥4): 163 nM

Substance: TGPSASSGLWFGPRL-NH2 [DromePK1]
- EC50: > 1000 nM

Substance: TSQDIASGMWFGPRL-NH2 [SolinDH]
- EC50 (N≥4): 125 nM
